Where two headings read alike, the source gives them in different places.
Tests used:
[1] = target: T1, malonyl-CoA decarboxylase prepared from rat heart (Rattus norvegicus, UniProt Q920F5); assay: In vitro MCD inhibitory assay (spectrophotometric, 96 well); type: biochemical
T1 construct: from tissue; host or cells: rat heart
T1 sequence (Q920F5 39-492): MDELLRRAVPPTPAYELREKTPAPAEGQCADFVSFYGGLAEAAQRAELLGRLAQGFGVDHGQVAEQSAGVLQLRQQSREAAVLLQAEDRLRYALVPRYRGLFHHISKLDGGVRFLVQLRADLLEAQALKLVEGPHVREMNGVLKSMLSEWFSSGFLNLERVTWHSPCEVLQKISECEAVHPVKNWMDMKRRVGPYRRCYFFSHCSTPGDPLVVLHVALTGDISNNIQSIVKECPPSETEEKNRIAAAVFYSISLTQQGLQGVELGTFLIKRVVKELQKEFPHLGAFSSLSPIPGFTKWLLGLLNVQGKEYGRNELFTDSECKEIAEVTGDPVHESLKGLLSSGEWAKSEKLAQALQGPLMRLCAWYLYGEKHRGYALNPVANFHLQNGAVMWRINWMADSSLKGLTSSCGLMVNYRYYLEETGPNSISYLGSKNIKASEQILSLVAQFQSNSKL
Protocol: The following reagents are added into a 96 well titer plate: Tris-HCl buffer, 20 μL, DTE, 10 μL; I-malate, 20 μL; NAD, 10 μL; NADH, 25 μL; water, 80 μL; malic dehydrogenase, 5 μL. The contents are mixed and incubated for 2 min followed by the addition of 5 μL of citrate synthase.

[2] = target: T2, carnitine palmitoyltransferase-I (CPT-I) muscle (M) isoform (Homo sapiens, UniProt Q92523); conditions: read-out: IC50 of malonyl-CoA inhibition of CPT-I; cited from earlier work
T2 sequence (Q92523 1-772): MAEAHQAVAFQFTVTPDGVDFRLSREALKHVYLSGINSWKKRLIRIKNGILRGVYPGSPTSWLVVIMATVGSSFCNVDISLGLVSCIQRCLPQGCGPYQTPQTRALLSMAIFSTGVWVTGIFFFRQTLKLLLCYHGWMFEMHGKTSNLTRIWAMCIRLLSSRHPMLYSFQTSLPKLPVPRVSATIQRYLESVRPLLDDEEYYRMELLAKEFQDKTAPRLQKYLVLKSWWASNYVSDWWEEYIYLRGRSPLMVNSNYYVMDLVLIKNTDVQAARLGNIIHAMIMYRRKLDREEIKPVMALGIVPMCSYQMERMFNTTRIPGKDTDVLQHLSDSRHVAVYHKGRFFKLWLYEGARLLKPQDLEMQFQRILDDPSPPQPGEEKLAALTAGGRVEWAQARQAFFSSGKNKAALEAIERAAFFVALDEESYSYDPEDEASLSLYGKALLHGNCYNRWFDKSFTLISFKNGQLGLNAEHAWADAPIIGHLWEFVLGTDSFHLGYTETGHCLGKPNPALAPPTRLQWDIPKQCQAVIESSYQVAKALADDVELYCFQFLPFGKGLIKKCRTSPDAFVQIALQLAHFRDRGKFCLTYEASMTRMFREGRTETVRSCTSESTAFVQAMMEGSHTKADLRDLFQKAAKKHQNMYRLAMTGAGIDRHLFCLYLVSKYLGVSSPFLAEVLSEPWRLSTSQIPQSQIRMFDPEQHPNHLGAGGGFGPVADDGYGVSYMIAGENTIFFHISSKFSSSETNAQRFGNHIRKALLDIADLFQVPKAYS

breast carcinoma cells = conditions: Pizer et al.; cited from earlier work
[3] = MCD from rat heart, concentration causing 50% inhibition of MCD activity, read-out: IC50 of the MCD inhibitors

| SMILES | IC50 [1, 3] [nM] | also measured |
| --- | --- | --- |
| OC(c1ccc(N(Cc2ccc(C(F)(F)F)cc2)C(=S)N2CCOCC2)cc1)(C(F)(F)F)C(F)(F)F [Example 1, morpholine-4-carbothioic acid [4-(2,2,2-trifluoro-1-hydroxy-1-trifluoromethyl-ethyl)-phenyl]-(4-trifluoromethyl-benzyl)-amide] | 123 | – |
| N#CCCCCN(C(=S)N1CCOCC1)c1ccc(C(O)(C(F)(F)F)C(F)(F)F)cc1 [Example 2, N-(4-cyanobutyl)-N-{4-[2,2,2-trifluoro-1-hydroxy-1-(trifluoromethyl)ethyl]phenyl}morpholine-4-carbothioamide] | 42 | – |
| CCCCN(C(=N)N(CC)CC)c1ccc(C(O)(C(F)(F)F)C(F)(F)F)cc1.Cl [Example 4] | – | melting point: 217.1 to 219.2 °C (dec.) |
| COC(=O)CCCCN(C(=S)N1CCOCC1)c1ccc(C(O)(C(F)(F)F)C(F)(F)F)cc1 [Example 5-48] | 45 | – |
| CC(C)(C)OC(=O)CCNC(=O)C1CC(c2ccc(C(O)(C(F)(F)F)C(F)(F)F)cc2)=NO1 (stereo not drawn) [Example 12, 1,1-dimethylethyl N-[(3-{4-[2,2,2-trifluoro-1-hydroxy-1-(trifluoromethyl)ethyl]phenyl}-4,5-dihydroisoxazol-5-yl)carbonyl]-beta-alaninate] | 515 | – |
| CCOP(=O)(OCC)N(CC)c1ccc(C(O)(C(F)(F)F)C(F)(F)F)cc1 [Example 28, diethyl ethyl{4-[2,2,2-trifluoro-1-hydroxyl-1-(trifluoromethyl)ethyl]phenyl}amidophosphate] | – | IC50 [1]: 90 nM |
| CC(C)(COP(=O)(O)OP(=O)(O)OC[C@H]1O[C@@H](n2cnc3c(N)ncnc32)[C@H](O)[C@@H]1OP(=O)(O)O)[C@@H](O)C(=O)NCCC(=O)NCCSC(=O)CC(=O)O [Malonyl-CoA] | – | IC50 [2]: 30 nM |
| CCCCCCCCCCCCCCOc1ccc(C(=O)O)o1 [TOFA, 5-(tetradecyloxy)-2-furoic acid] | – | malonyl-CoA level (breast carcinoma cells): 60 % of the control |

Further lines, with some results ahead:

| IC50 [1, 3] [nM] | SMILES | also measured |
| --- | --- | --- |
| 164 | CCCCN(C(=N)N(CC)CC)c1ccc(C(O)(C(F)(F)F)C(F)(F)F)cc1.Cl [Example 4, butyl {4-[2,2,2-trifluoro-1-hydroxy-1-(trifluoromethyl)ethyl]phenyl}amino)(diethylamino)methaniminium chloride] | – |
| 147 | CCCCN(C(=S)N(CC)CC)c1ccc(C(O)(C(F)(F)F)C(F)(F)F)cc1 [Example 5-108] | – |
| 127 | CCCC(O)(CCC)c1ccc(C(O)(C(F)(F)F)C(F)(F)F)cc1 [Example 15] | – |
| 354 | CCCCNC(=O)c1c(-c2ccccc2)nc(-c2ccc(C(O)(C(F)(F)F)C(F)(F)F)cc2)n1CCC [Example 22, N-butyl-4-phenyl-1-propyl-2-{4-[2,2,2-trifluoro-1-hydroxy-1-(trifluoromethyl)ethyl]phenyl}-1H-imidazole-5-carboxamide] | – |
| 44 | CCCCNC(=O)c1c(-c2ccccc2)nc(-c2ccc(C(O)(C(F)(F)F)C(F)(F)F)cc2)n1C(C)C [Example 23-11] | – |
